According to patent US9273003B2, “Methods of treating lymphoma and rheumatoid arthritis with cyclopentyl (2S)-cyclohexyl[({6-[3-(hydroxyamino)-3-oxopropyl]pyridin-3-yl}methyl)amino]acetate” (GlaxoSmithKline Intellectual Property Development Limited, priority 2006, dated 2016):

Legend:
HUT78 cells = assay: HUT cell inhibition assay (WST-1 cell viability); type: cell-based; details: Homo sapiens; HUT78 cells; IC50 allocated to ranges; read-out: HUT activity
Outline: (§1)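 Log-phase cells seeded at 1000-2000/well, grown 24 h, then exposed to compound for 72-96 h before WST-1 viability readout. Eight concentrations (top 10 μM final, 3-fold steps), 6 replicates; % inhibition versus DMSO, IC50 by sigmoidal variable-slope fit.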

HeLa cells = assay: HeLa cell inhibition assay (sulphorhodamine B cell viability); type: cell-based; details: Homo sapiens, IC50 allocated to ranges
Experimental: HeLa cells growing in log phase were harvested and seeded at 1000 cells/well (200 μl final volume) into 96-well tissue culture plates. Following 24 h of cell growth cells were treated with compounds (final concentration of 20 μM). Plates were then re-incubated for a further 72 h before a sulphorhodamine B (SRB) cell viability assay was conducted according to the methodology described by Skehan et al, J. Natl. Canc. Inst., 1990, 82, 1107-1112.
Data were expressed as a percentage inhibition of the control, measured in the absence of inhibitor, as follows:— % inhibition=100−[(S^i/S^o)×100] where S^i is the signal in the presence of inhibitor and S^o is the signal in the presence of DMSO.
IC50 values were determined by non-linear regression analysis, after fitting the results of eight data points to the equation for sigmoidal dose response with variable slope (% activity against log concentration of Compound), using Graphpad Prism software.

U937 cells = assay: U937 cell inhibition assay (WST-1 cell viability); type: cell-based; details: Homo sapiens, U-937; U937 cells; IC50 allocated to ranges; read-out: U937 activity
Outline: as §1

[1] = target: histone deacetylase activity (HeLa nuclear extract); assay: HDAC fluorescent activity assay (Fluor de Lys, Biomol); type: biochemical; details: IC50 allocated to ranges, read-out: HDAC activity
Outline: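 HeLa nuclear extract as HDAC source incubated with acetyl-lysine Fluor de Lys substrate ± inhibitor; developer then releases fluorophore from deacetylated substrate. Activity as % of vehicle control after no-enzyme background subtraction; IC50 from eight-point variable-slope sigmoidal fit.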

## O=C(/C=C/c1ccc(CN[C@H](C(=O)OC2CC3CCC2C3)C2CCCCC2)cn1)NO (stereo partly drawn) [Example 58, Bicyclo[2.2.1]hept-2-yl (2S)-cyclohexyl[({6-[(1E)-3-(hydroxyamino)-3-oxoprop-1-en-1-yl]pyridin-3-yl}methyl)amino]acetate]
HUT78 cells
  IC50: < 330 nM
HeLa cells
  IC50: 331 to 3300 nM
U937 cells
  IC50: < 330 nM
[1]
  IC50: < 100 nM

## O=C(/C=C/c1cccc(CNCC2CCC(CN[C@H](C(=O)OC3CCCC3)C3CCCCC3)CC2)c1)NO (stereo partly drawn) [Example 79, Cyclopentyl (2S)-cyclohexyl[({4-[({3-[(1E)-3-(hydroxyamino)-3-oxoprop-1-en-1-yl]benzyl}amino)methyl]cyclohexyl}methyl)amino]acetate]
HUT78 cells
  IC50: 331 to 3300 nM
HeLa cells
  IC50: 331 to 3300 nM
U937 cells
  IC50: 331 to 3300 nM
[1]
  IC50: > 1000 nM

## CC(C)C[C@H](NS(=O)(=O)c1cccc(/C=C/C(=O)NO)c1)C(=O)OC1CCCC1 [Example 3, Cyclopentyl N-({3-[(1E)-3-(hydroxyamino)-3-oxoprop-1-en-1-yl]phenyl}sulfonyl)-L-leucinate]
HUT78 cells
  IC50: 331 to 3300 nM
HeLa cells
  IC50: 331 to 3300 nM
U937 cells
  IC50: 331 to 3300 nM
[1]
  IC50: < 100 nM

## CC(C)(C)OC[C@H](NC1CCN(Cc2ccc(/C=C/C(=O)NO)cc2)CC1)C(=O)OC1CCCC1 [Example 81, Cyclopentyl O-tert-butyl-N-(1-{4-[(1E)-3-(hydroxyamino)-3-oxoprop-1-en-1-yl]benzyl}piperidin-4-yl)-L-serinate]
HUT78 cells
  IC50: < 330 nM
HeLa cells
  IC50: 331 to 3300 nM
U937 cells
  IC50: < 330 nM
[1]
  IC50: 101 to 1000 nM

## O=C(/C=C/c1ccc(CN[C@H](C(=O)OCCN2CCOCC2)C2CCCCC2)cn1)NO [Example 56, 2-Morpholin-4-ylethyl (2S)-cyclohexyl[({6-[(1E)-3-(hydroxyamino)-3-oxoprop-1-en-1-yl]pyridin-3-yl}methyl)amino]acetate]
HUT78 cells
  IC50: < 330 nM
HeLa cells
  IC50: 331 to 3300 nM
U937 cells
  IC50: < 330 nM
[1]
  IC50: < 100 nM

## O=C(/C=C/c1cccc(S(=O)(=O)N[C@H](C(=O)OC2CCCC2)C2CCCCC2)c1)NO [Example 2, Cyclopentyl (2S)-cyclohexyl[({3-[(1E)-3-(hydroxyamino)-3-oxoprop-1-en-1-yl]phenyl}sulfonyl)amino]acetate]
HUT78 cells
  IC50: 331 to 3300 nM
HeLa cells
  IC50: 331 to 3300 nM
U937 cells
  IC50: 331 to 3300 nM
[1]
  IC50: < 100 nM

## CC(C)C[C@@H](NCc1ccc(/C=C/C(=O)NO)cc1)C(=O)OC1CCCC1 [Example 18, Cyclopentyl N-{4-[(1E)-3-(hydroxyamino)-3-oxoprop-1-en-1-yl]benzyl}-D-leucinate]
HUT78 cells
  IC50: 331 to 3300 nM
HeLa cells
  IC50: > 3300 nM
U937 cells
  IC50: 331 to 3300 nM
[1]
  IC50: 101 to 1000 nM

## CC(C)(C)OC[C@H](NCCCOc1ccc(/C=C/C(=O)NO)cc1)C(=O)OC1CCCC1 [Example 10, Cyclopentyl O-tert-butyl-N-(3-{4-[(1E)-3-(hydroxyamino)-3-oxoprop-1-en-1-yl]phenoxy}propyl)-L-serinate]
HUT78 cells
  IC50: 331 to 3300 nM
HeLa cells
  IC50: 331 to 3300 nM
U937 cells
  IC50: 331 to 3300 nM
[1]
  IC50: 101 to 1000 nM

## O=C(/C=C/c1ccc(CN[C@H](C(=O)OC2CCCC2)c2ccccc2)cc1)NO [Example 17, Cyclopentyl (2S)-({4-[(1E)-3-(hydroxyamino)-3-oxoprop-1-en-1-yl]benzyl}amino)(phenyl)acetate]
HUT78 cells
  IC50: 331 to 3300 nM
HeLa cells
  IC50: > 3300 nM
U937 cells
  IC50: < 330 nM
[1]
  IC50: 101 to 1000 nM

## O=C(/C=C/c1cccc(CNCc2ccc(CN[C@H](C(=O)OC3CCCC3)C3CCCCC3)cc2)c1)NO [Example 73, Cyclopentyl (2S)-cyclohexyl({4-[({3-[(1E)-3-(hydroxyamino)-3-oxoprop-1-en-1-yl]benzyl}amino)methyl]benzyl}amino)acetate]
HUT78 cells
  IC50: 331 to 3300 nM
HeLa cells
  IC50: 331 to 3300 nM
U937 cells
  IC50: 331 to 3300 nM
[1]
  IC50: 101 to 1000 nM

## CC1CCCC1OC(=O)[C@@H](NCc1ccc(/C=C/C(=O)NO)cc1)C1CCCCC1 (stereo partly drawn) [Example 27, 2-Methylcyclopentyl (2S)-cyclohexyl({4-[(1E)-3-(hydroxyamino)-3-oxoprop-1-en-1-yl]benzyl}amino)acetate]
HUT78 cells
  IC50: 331 to 3300 nM
HeLa cells
  IC50: 331 to 3300 nM
U937 cells
  IC50: < 330 nM
[1]
  IC50: 101 to 1000 nM
